Laboratory results as given in patent US20220055989A1, “CONDENSED PYRROLES AS NOVEL BROMODOMAIN INHIBITORS” (ALBERT LUDWING UNIVERSITÄT FREIBURG, priority 2018, published 2022).

What was measured:
BRD3(2) = biological target: T1, BRD3(2) (Homo sapiens, UniProt Q15059); assay: Bromodomain assay % Ctrl determination BRD3(2); details: lower numbers indicate a stronger binding
T1 construct: T7 phage strains displaying bromodomains were grown in parallel; made in house; host or cells: T7 phage grown in an E. coli host derived from the BL21 strain
Experimental: (§1) Compounds that bind the bromodomain prevent its binding to the immobilized ligand thus reducing the amount of protein captured. […] Hits are identified by measuring the amount of bromodomain captured in test versus control samples. Bromodomain assays for % Ctrl determination: T7 phage strains displaying bromodomains were grown in parallel in 24-well blocks in an E. coli host derived from the BL21 strain. E. coli were grown to log-phase and infected with T7 phage from a frozen stock (multiplicity of infection=0.4) and incubated with shaking at 32° C. until lysis (90-150 minutes). The lysates were centrifuged (5,000×g) and filtered (0.2 μm) to remove cell debris. […] The liganded beads were blocked with excess biotin and washed with blocking buffer (SeaBlock (Pierce), 1% BSA, 0.05% Tween 20, 1 mM DTT) to remove unbound ligand and to reduce non-specific phage binding. […] Test compounds were prepared as 1000× stocks in 100% DMSO and subsequently diluted 1:25 in monoethylene glycol (MEG). The compounds were then diluted directly into the assays such that the final concentrations of DMSO and MEG were 0.1% and 2.4%, respectively. All reactions were performed in polypropylene 384-well plates in a final volume of 0.02 ml. […] The bromodomain concentration in the eluates was measured by qPCR. […]

BAZ2B = biological target: T2, BAZ2B (Homo sapiens, UniProt Q9UIF8); assay: Bromodomain assay % Ctrl determination BAZ2B; details: lower numbers indicate a stronger binding
T2 construct: T7 phage strains displaying bromodomains were grown in parallel; made in house; host or cells: T7 phage grown in an E. coli host derived from the BL21 strain
Experimental: as §1

BRPF3 = biological target: T3, BRPF3 (Homo sapiens, UniProt Q9ULD4); assay: Bromodomain assay % Ctrl determination BRPF3; details: lower numbers indicate a stronger binding
T3 construct: T7 phage strains displaying bromodomains were grown; host or cells: T7 phage in E. coli derived from BL21
Experimental: as §1

WDR9(2) = biological target: T4, WDR9(2) (Homo sapiens, UniProt Q9NSI6); assay: Bromodomain assay % Ctrl determination WDR9(2); details: lower numbers indicate a stronger binding
T4 construct: T7 phage strains displaying bromodomains were grown in parallel; host or cells: T7 phage grown in E. coli host derived from BL21
Experimental: as §1

TAF1L(2) = biological target: T5, TAF1L(2) (Homo sapiens, UniProt Q8IZX4); assay: Bromodomain assay % Ctrl determination TAF1L(2); details: lower numbers indicate a stronger binding
T5 construct: FALZ, PBRM1-BD2, BPRM1-BDS, TAF1-BD2, TAF1L-BD2; host or cells: T7 phage grown in E. coli host derived from BL21
Experimental: as §1

BRD3(1) = biological target: T6, BRD3(1) (Homo sapiens, UniProt Q15059); assay: Bromodomain assay % Ctrl determination BRD3(1); details: lower numbers indicate a stronger binding
T6 construct: T7 phage strains displaying bromodomains were grown in parallel; made in house; host or cells: T7 phage grown in an E. coli host derived from the BL21 strain
Experimental: as §1

BRD9 = biological target: T7, BRD9 (Homo sapiens, UniProt Q9H8M2); assay: Bromodomain assay % Ctrl determination BRD9; details: lower numbers indicate a stronger binding
T7 construct: T7 phage strains displaying bromodomains were grown; host or cells: T7 phage in E. coli derived from BL21
T7 sequence (Q9H8M2 136-240 limits assumed): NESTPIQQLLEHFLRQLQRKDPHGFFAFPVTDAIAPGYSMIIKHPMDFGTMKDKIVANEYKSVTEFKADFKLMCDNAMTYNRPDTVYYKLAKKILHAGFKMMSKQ
Experimental: as §1

BRD7 = biological target: T8, BRD7 (Homo sapiens, UniProt Q9NPI1); assay: Bromodomain assay % Ctrl determination BRD7; details: lower numbers indicate a stronger binding
T8 construct: T7 phage strains displaying bromodomains were grown; host or cells: T7 phage in E. coli derived from BL21
T8 sequence (Q9NPI1 131-235 limits assumed): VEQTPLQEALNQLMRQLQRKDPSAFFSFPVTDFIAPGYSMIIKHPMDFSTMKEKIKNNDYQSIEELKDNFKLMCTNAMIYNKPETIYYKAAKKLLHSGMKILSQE
Experimental: as §1

BRD2(1) = biological target: T9, BRD2(1) (Homo sapiens, UniProt P25440); assay: Bromodomain assay % Ctrl determination BRD2(1); details: lower numbers indicate a stronger binding
T9 construct: T7 phage strains displaying bromodomains were grown in parallel; made in house; host or cells: T7 phage grown in an E. coli host derived from the BL21 strain
Experimental: as §1

CREBBP = biological target: T10, CREBBP (Homo sapiens, UniProt Q92793); assay: BROMOscan Kd determination CREBBP; assay type: binding
T10 construct: T7 phage strains displaying bromodomains were grown; host or cells: T7 phage in E. coli derived from BL21
Experimental: (§2) Bromodomain profiling was carried out on the basis of BROMOscan™. This platform accounted for the indirect determination of the dissociation constants between 19 bromodomains and the compound of formula (13), by binding competition against a reference immobilized ligand. Compounds that bind the bromodomain prevent its binding to the immobilized ligand thus reducing the amount of protein captured. […] Hits are identified by measuring the amount of bromodomain captured in test versus control samples. Bromodomain assays for Kd determination: T7 phage strains displaying bromodomains were grown in parallel in 24-well blocks in an E. coli host derived from the BL21 strain. E. coli were grown to log-phase and infected with T7 phage from a frozen stock (multiplicity of infection=0.4) and incubated with shaking at 32° C. until lysis (90-150 minutes). The lysates were centrifuged (5,000×g) and filtered (0.2 μm) to remove cell debris. […] Kds were determined using an 11-point 3-fold compound dilution series with one DMSO control point. […] The bromodomain concentration in the eluates was measured by qPCR. […] Most Kds were determined using a compound top concentration=10,000 nM. […] Binding Constants (Kds): Binding constants (Kds) were calculated with a standard dose-response curve using the Hill equation: The Hill Slope was set to −1. […]

SMARCA4 = biological target: T11, SMARCA4 (Homo sapiens, UniProt P51532); assay: BROMOscan Kd determination SMARCA4; assay type: binding
T11 construct: T7 phage strains displaying bromodomains were grown in parallel; host or cells: T7 phage grown in E. coli host derived from BL21
Experimental: as §2

BRD1 = biological target: T12, BRD1 (Homo sapiens, UniProt O95696); assay: BROMOscan Kd determination BRD1; assay type: binding
T12 construct: T7 phage strains displaying bromodomains were grown in parallel; made in house; host or cells: T7 phage grown in an E. coli host derived from the BL21 strain
Experimental: as §2

PBRM1(5) = biological target: T13, PBRM1(5) (Homo sapiens, UniProt Q86U86); assay: BROMOscan Kd determination PBRM1(5); assay type: binding
T13 construct: T7 phage strains displaying bromodomains were grown in parallel; host or cells: T7 phage grown in E. coli host derived from BL21
Experimental: as §2

BRD4(short-iso.) = biological target: T14, BRD4(short-iso.) (Homo sapiens, UniProt O60885); assay: BROMOscan Kd determination BRD4(short-iso.); assay type: binding
T14 construct: host or cells: T7 phage in E. coli derived from BL21
Experimental: as §2

WRD9(2) = biological target: T15, WRD9(2) (Homo sapiens, UniProt Q9NSI6); assay: BROMOscan Kd determination WRD9(2); assay type: binding
T15 construct: T7 phage strains displaying bromodomains were grown in parallel; host or cells: T7 phage grown in E. coli host derived from BL21
Experimental: as §2

T10 sequence (Q92793 1085-1192 limits assumed): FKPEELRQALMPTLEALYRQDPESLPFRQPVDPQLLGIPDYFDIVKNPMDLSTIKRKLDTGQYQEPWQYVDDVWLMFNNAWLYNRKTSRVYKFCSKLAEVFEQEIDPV
T15 sequence (Q9NSI6 1313-1418 limits assumed): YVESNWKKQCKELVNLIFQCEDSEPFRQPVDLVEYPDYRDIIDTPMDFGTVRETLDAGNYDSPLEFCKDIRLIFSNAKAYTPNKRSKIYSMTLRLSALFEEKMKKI
T4 sequence (Q9NSI6 1313-1418 limits assumed): as above
T9 sequence (P25440 74-180 limits assumed): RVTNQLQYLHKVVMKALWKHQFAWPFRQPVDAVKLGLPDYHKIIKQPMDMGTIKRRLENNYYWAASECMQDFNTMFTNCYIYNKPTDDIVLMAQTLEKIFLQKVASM
T1 sequence (Q15059 306-415 limits assumed): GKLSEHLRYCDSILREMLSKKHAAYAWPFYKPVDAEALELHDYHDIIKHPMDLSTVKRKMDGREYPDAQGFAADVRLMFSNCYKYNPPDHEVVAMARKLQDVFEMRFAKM
T13 sequence (Q86U86 653-763 limits assumed): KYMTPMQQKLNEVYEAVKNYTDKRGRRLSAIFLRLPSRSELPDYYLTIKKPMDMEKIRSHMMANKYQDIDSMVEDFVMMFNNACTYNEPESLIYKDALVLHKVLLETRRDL
T6 sequence (Q15059 34-140 limits assumed): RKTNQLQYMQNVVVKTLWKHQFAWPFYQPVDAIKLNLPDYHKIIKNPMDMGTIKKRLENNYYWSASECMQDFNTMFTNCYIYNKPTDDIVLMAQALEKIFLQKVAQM
T3 sequence (Q9ULD4 589-693 limits assumed): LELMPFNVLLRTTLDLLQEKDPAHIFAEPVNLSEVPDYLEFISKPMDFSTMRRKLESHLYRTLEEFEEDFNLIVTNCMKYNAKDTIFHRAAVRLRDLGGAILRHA
T2 sequence (Q9UIF8 2060-2164 limits assumed): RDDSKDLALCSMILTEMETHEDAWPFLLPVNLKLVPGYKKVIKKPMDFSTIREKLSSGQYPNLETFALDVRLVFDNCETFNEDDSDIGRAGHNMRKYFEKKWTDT
T5 sequence (Q8IZX4 1517-1626 limits assumed): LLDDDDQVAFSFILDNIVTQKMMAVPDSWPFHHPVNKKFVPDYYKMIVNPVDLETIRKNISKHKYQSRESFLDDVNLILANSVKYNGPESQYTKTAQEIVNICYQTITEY
T11 sequence (P51532 1453-1564 limits assumed): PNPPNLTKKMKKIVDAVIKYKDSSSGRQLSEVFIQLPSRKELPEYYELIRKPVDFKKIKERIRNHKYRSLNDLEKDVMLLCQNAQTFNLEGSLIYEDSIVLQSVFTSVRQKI
T12 sequence (O95696 562-666 limits assumed): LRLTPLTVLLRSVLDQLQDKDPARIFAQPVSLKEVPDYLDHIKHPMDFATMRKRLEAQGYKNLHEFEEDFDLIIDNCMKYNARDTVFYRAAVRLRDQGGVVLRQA

Row | Structure (SMILES) | % Ctrl @ 10 000 nM BRD3(2) (BRD3(2)) [% Ctrl] | % Ctrl @ 10 000 nM BAZ2B (BAZ2B) [% Ctrl] | % Ctrl @ 10 000 nM BRPF3 (BRPF3) [% Ctrl] | % Ctrl @ 10 000 nM WDR9(2) (WDR9(2)) [% Ctrl] | % Ctrl @ 10 000 nM TAF1L(2) (TAF1L(2)) [% Ctrl] | % Ctrl @ 10 000 nM BRD3(1) (BRD3(1)) [% Ctrl] | % Ctrl @ 10 000 nM BRD9 (BRD9) [% Ctrl] | % Ctrl @ 10 000 nM BRD7 (BRD7) [% Ctrl] | % Ctrl @ 10 000 nM BRD2(1) (BRD2(1)) [% Ctrl] | Kd (CREBBP) [µM] | Kd (SMARCA4) [µM] | Kd (BRD1) [µM] | Kd (PBRM1(5)) [µM] | Kd (BRD4(short-iso.)) [µM] | Kd (WRD9(2)) [µM]
1 | COc1ccc(S(=O)(=O)N2CCOCC2)cc1NC(=O)c1[nH]c(C)c2c1CCCCC2=O [Compound 13, N-(2-methoxy-5-(morpholinosulfonyl)phenyl)-3-methyl-4-oxo-2,4,5,6,7,8-hexahydrocyclohepta[c]pyrrole-1-carboxamide] | 0 | 6.8 | 35 | 81 | 40 | 0.05 | 0 | 0 | 0 | – | – | – | – | – | –
2 | Cc1[nH]c(-c2cc(N)ccc2Cl)c2c1C(=O)CCCC2 [Compound 23] | – | – | – | – | – | – | – | – | – | 0.42 | > 10 | 3.1 | 3.8 | 0.18 | > 10
